Assay results: PubChem BioAssay (NCI)
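The compound was tested at five concentrations on cells cultured in 96-well plates, with a 48-hour exposure period. Abbreviation: GI50, concentration required for 50% inhibition of growth. TGI: concentration producing complete growth inhibition.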

Columns and labels:
Experiment in all cases: DTP human tumour cell line panel, 48 h
786-0 renal = tested on: 786-0 renal
HOP-62 NSCLC = tested on: HOP-62 NSCLC
SK-OV-3 ovarian = tested on: SK-OV-3 ovarian
PC-3 prostate = tested on: PC-3 prostate
SK-MEL-28 melanoma = tested on: SK-MEL-28 melanoma
SW-620 colon = tested on: SW-620 colon
A498 renal = tested on: A498 renal
SF-268 CNS = tested on: SF-268 CNS
U251 CNS = tested on: U251 CNS
HCT-116 colon = tested on: HCT-116 colon
MDA-MB-435 = tested on: MDA-MB-435
HL-60(TB) leukemia = tested on: HL-60(TB) leukemia
HT29 colon = tested on: HT29 colon
COLO 205 colon = tested on: COLO 205 colon
CAKI-1 renal = tested on: CAKI-1 renal
TK-10 renal = tested on: TK-10 renal
HCC-2998 colon = tested on: HCC-2998 colon
OVCAR-3 ovarian = tested on: OVCAR-3 ovarian
M14 melanoma = tested on: M14 melanoma
UACC-257 melanoma = tested on: UACC-257 melanoma
SK-MEL-5 melanoma = tested on: SK-MEL-5 melanoma
HS 578T breast = tested on: HS 578T breast
OVCAR-8 ovarian = tested on: OVCAR-8 ovarian
SN12C renal = tested on: SN12C renal
BT-549 breast = tested on: BT-549 breast
NCI/ADR-RES ovarian = tested on: NCI/ADR-RES ovarian
SR leukemia = tested on: SR leukemia
DU-145 prostate = tested on: DU-145 prostate
OVCAR-4 ovarian = tested on: OVCAR-4 ovarian
UACC-62 melanoma = tested on: UACC-62 melanoma
NCI-H460 lung = tested on: NCI-H460 lung
A549 NSCLC = tested on: A549 NSCLC
MALME-3M melanoma = tested on: MALME-3M melanoma
T-47D breast = tested on: T-47D breast
SF-539 CNS = tested on: SF-539 CNS
MCF7 breast = tested on: MCF7 breast
OVCAR-5 ovarian = tested on: OVCAR-5 ovarian
MDA-MB-231 breast = tested on: MDA-MB-231 breast
SNB-75 CNS = tested on: SNB-75 CNS
EKVX NSCLC = tested on: EKVX NSCLC
CCRF-CEM leukemia = tested on: CCRF-CEM leukemia
HCT-15 colon = tested on: HCT-15 colon
HOP-92 NSCLC = tested on: HOP-92 NSCLC
NCI-H226 lung = tested on: NCI-H226 lung
SNB-19 CNS = tested on: SNB-19 CNS
LOX IMVI melanoma = tested on: LOX IMVI melanoma
RPMI-8226 leukemia = tested on: RPMI-8226 leukemia
NCI-H522 lung = tested on: NCI-H522 lung
ACHN renal = tested on: ACHN renal
K-562 leukemia = tested on: K-562 leukemia
NCI-H23 lung = tested on: NCI-H23 lung
SF-295 CNS = tested on: SF-295 CNS
IGROV1 ovarian = tested on: IGROV1 ovarian
RXF 393 renal = tested on: RXF 393 renal
SK-MEL-2 melanoma = tested on: SK-MEL-2 melanoma
UO-31 renal = tested on: UO-31 renal
MOLT-4 leukemia = tested on: MOLT-4 leukemia

COc1ccc2c(c1)NC1=C(C(=O)OC1)C2c1cc(OC)c2c(c1)OCO2 (stereo not drawn)
GI50 (786-0 renal): 32 nM | TGI (786-0 renal): > 100000 nM | GI50 (HOP-62 NSCLC): 22.5 nM | TGI (HOP-62 NSCLC): 70800 nM | GI50 (SK-OV-3 ovarian): 20.4 nM | GI50 (PC-3 prostate): 28 nM | TGI (PC-3 prostate): > 100000 nM | TGI (SK-MEL-28 melanoma): > 100000 nM | GI50 (SW-620 colon): < 19.2 nM | TGI (SW-620 colon): > 100000 nM | GI50 (A498 renal): < 14.6 nM | TGI (A498 renal): 43.7 nM | GI50 (SF-268 CNS): < 21 nM | TGI (SF-268 CNS): > 100000 nM | GI50 (U251 CNS): 23.6 nM | TGI (U251 CNS): > 100000 nM | GI50 (HCT-116 colon): < 18.2 nM | GI50 (MDA-MB-435): < 12.3 nM | TGI (MDA-MB-435): 32.2 nM | GI50 (HL-60(TB) leukemia): 20.9 nM | TGI (HL-60(TB) leukemia): > 100000 nM | GI50 (HT29 colon): 31.4 nM | TGI (HT29 colon): > 100000 nM | GI50 (COLO 205 colon): < 13.5 nM | TGI (COLO 205 colon): 30.5 nM | GI50 (CAKI-1 renal): 50.2 nM | TGI (CAKI-1 renal): > 100000 nM | GI50 (TK-10 renal): 60700 nM | TGI (TK-10 renal): > 100000 nM | GI50 (HCC-2998 colon): 29.7 nM | GI50 (OVCAR-3 ovarian): < 14.9 nM | TGI (OVCAR-3 ovarian): 24.1 nM | GI50 (M14 melanoma): 13.2 nM | TGI (M14 melanoma): 58.5 nM | TGI (UACC-257 melanoma): > 100000 nM | GI50 (SK-MEL-5 melanoma): 21 nM | TGI (SK-MEL-5 melanoma): 52.3 nM | GI50 (HS 578T breast): < 18.9 nM | TGI (HS 578T breast): > 100000 nM | GI50 (OVCAR-8 ovarian): < 18.5 nM | TGI (OVCAR-8 ovarian): > 100000 nM | GI50 (SN12C renal): 28.8 nM | TGI (SN12C renal): > 100000 nM | GI50 (BT-549 breast): 46 nM | TGI (BT-549 breast): > 100000 nM | GI50 (NCI/ADR-RES ovarian): < 16.5 nM | GI50 (SR leukemia): < 19.1 nM | TGI (SR leukemia): > 100000 nM | GI50 (DU-145 prostate): 21.8 nM | TGI (DU-145 prostate): 66 nM | GI50 (OVCAR-4 ovarian): 25.7 nM | TGI (OVCAR-4 ovarian): > 100000 nM | GI50 (UACC-62 melanoma): < 15.6 nM | TGI (UACC-62 melanoma): > 100000 nM | GI50 (NCI-H460 lung): 27.4 nM | TGI (NCI-H460 lung): > 100000 nM | GI50 (A549 NSCLC): 22.9 nM | TGI (A549 NSCLC): > 100000 nM | GI50 (MALME-3M melanoma): > 100000 nM | TGI (MALME-3M melanoma): > 100000 nM | GI50 (T-47D breast): > 100000 nM | TGI (T-47D breast): > 100000 nM | GI50 (SF-539 CNS): < 17.8 nM | TGI (SF-539 CNS): > 83200 nM | GI50 (MCF7 breast): < 15.8 nM | TGI (MCF7 breast): > 100000 nM | GI50 (OVCAR-5 ovarian): 81.7 nM | TGI (OVCAR-5 ovarian): > 100000 nM | GI50 (MDA-MB-231 breast): 34.2 nM | TGI (MDA-MB-231 breast): > 100000 nM | GI50 (SNB-75 CNS): 42.6 nM | TGI (SNB-75 CNS): 43300 nM | TGI (EKVX NSCLC): > 100000 nM | GI50 (CCRF-CEM leukemia): < 18.7 nM | TGI (CCRF-CEM leukemia): > 100000 nM | GI50 (HCT-15 colon): 31.9 nM | TGI (HCT-15 colon): > 100000 nM | GI50 (HOP-92 NSCLC): 1360 nM | TGI (HOP-92 NSCLC): > 87900 nM | GI50 (NCI-H226 lung): < 15.3 nM | GI50 (SNB-19 CNS): 51.9 nM | TGI (SNB-19 CNS): > 100000 nM | GI50 (LOX IMVI melanoma): < 18.9 nM | TGI (LOX IMVI melanoma): > 100000 nM | GI50 (RPMI-8226 leukemia): < 19.8 nM | TGI (RPMI-8226 leukemia): > 100000 nM | TGI (NCI-H522 lung): 25.1 nM | GI50 (ACHN renal): 56.7 nM | TGI (ACHN renal): > 100000 nM | TGI (K-562 leukemia): > 100000 nM | GI50 (NCI-H23 lung): 25.9 nM | TGI (NCI-H23 lung): > 100000 nM | GI50 (SF-295 CNS): < 15.5 nM | TGI (SF-295 CNS): > 100000 nM | GI50 (IGROV1 ovarian): 33.7 nM | TGI (IGROV1 ovarian): > 100000 nM | GI50 (RXF 393 renal): < 16.7 nM | TGI (RXF 393 renal): > 72400 nM | GI50 (SK-MEL-2 melanoma): 29.9 nM | TGI (SK-MEL-2 melanoma): > 100000 nM | TGI (UO-31 renal): > 100000 nM | GI50 (MOLT-4 leukemia): 24.6 nM | TGI (MOLT-4 leukemia): > 100000 nM
